Experimental data: PubChem BioAssay (NCI)
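48-hour exposure; five concentrations; linearly interpolated endpoints. GI50 is the concentration that inhibits growth by half. TGI: total growth inhibition.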

Assays:
Assay in all cases: DTP human tumour cell line panel, 48 h
NCI-H23 lung = test system: NCI-H23 lung
NCI-H460 lung = test system: NCI-H460 lung
NCI-H522 lung = test system: NCI-H522 lung
NCI/ADR-RES ovarian = test system: NCI/ADR-RES ovarian
OVCAR-3 ovarian = test system: OVCAR-3 ovarian
OVCAR-4 ovarian = test system: OVCAR-4 ovarian
OVCAR-5 ovarian = test system: OVCAR-5 ovarian
OVCAR-8 ovarian = test system: OVCAR-8 ovarian
PC-3 prostate = test system: PC-3 prostate
RPMI-8226 leukemia = test system: RPMI-8226 leukemia
RXF 393 renal = test system: RXF 393 renal
SF-268 CNS = test system: SF-268 CNS
SF-295 CNS = test system: SF-295 CNS
SF-539 CNS = test system: SF-539 CNS
SK-MEL-2 melanoma = test system: SK-MEL-2 melanoma
SK-MEL-28 melanoma = test system: SK-MEL-28 melanoma
SK-MEL-5 melanoma = test system: SK-MEL-5 melanoma
SK-OV-3 ovarian = test system: SK-OV-3 ovarian
SN12C renal = test system: SN12C renal
SNB-19 CNS = test system: SNB-19 CNS
SNB-75 CNS = test system: SNB-75 CNS
SR leukemia = test system: SR leukemia
SW-620 colon = test system: SW-620 colon
T-47D breast = test system: T-47D breast
TK-10 renal = test system: TK-10 renal
U251 CNS = test system: U251 CNS
UACC-257 melanoma = test system: UACC-257 melanoma
UACC-62 melanoma = test system: UACC-62 melanoma
UO-31 renal = test system: UO-31 renal

CCOC(=O)c1ccc2[nH]c(Cc3[nH]c4ccc(C(=O)OCC)cc4c3C)c(C)c2c1
GI50 (NCI-H23 lung): 6.35 µM | TGI (NCI-H23 lung): 25.8 µM | GI50 (NCI-H460 lung): 0.167 µM | TGI (NCI-H460 lung): 6.44 µM | GI50 (NCI-H522 lung): 3.27 µM | TGI (NCI-H522 lung): 19.2 µM | GI50 (NCI/ADR-RES ovarian): 2.52 µM | TGI (NCI/ADR-RES ovarian): 18.5 µM | GI50 (OVCAR-3 ovarian): 3.06 µM | TGI (OVCAR-3 ovarian): 17.6 µM | GI50 (OVCAR-4 ovarian): 7.87 µM | TGI (OVCAR-4 ovarian): 47.7 µM | GI50 (OVCAR-5 ovarian): 8.94 µM | TGI (OVCAR-5 ovarian): 53.8 µM | GI50 (OVCAR-8 ovarian): 1.21 µM | TGI (OVCAR-8 ovarian): 11.7 µM | GI50 (PC-3 prostate): 1.46 µM | TGI (PC-3 prostate): 13.7 µM | GI50 (RPMI-8226 leukemia): 2.66 µM | TGI (RPMI-8226 leukemia): 35.6 µM | GI50 (RXF 393 renal): 2.75 µM | TGI (RXF 393 renal): 14.7 µM | GI50 (SF-268 CNS): 1.41 µM | TGI (SF-268 CNS): 15.4 µM | GI50 (SF-295 CNS): 1.42 µM | TGI (SF-295 CNS): 13.5 µM | GI50 (SF-539 CNS): 1.37 µM | TGI (SF-539 CNS): 13.3 µM | GI50 (SK-MEL-2 melanoma): 14.1 µM | TGI (SK-MEL-2 melanoma): 40.5 µM | GI50 (SK-MEL-28 melanoma): 5.26 µM | TGI (SK-MEL-28 melanoma): 22.8 µM | GI50 (SK-MEL-5 melanoma): 1.22 µM | TGI (SK-MEL-5 melanoma): 14.5 µM | GI50 (SK-OV-3 ovarian): 2.04 µM | TGI (SK-OV-3 ovarian): 16.6 µM | GI50 (SN12C renal): 4.92 µM | TGI (SN12C renal): 24.7 µM | GI50 (SNB-19 CNS): 3.9 µM | TGI (SNB-19 CNS): 25.9 µM | GI50 (SNB-75 CNS): 4.2 µM | TGI (SNB-75 CNS): 23.4 µM | GI50 (SR leukemia): 0.425 µM | TGI (SR leukemia): 15.1 µM | GI50 (SW-620 colon): 1.41 µM | TGI (SW-620 colon): 15.6 µM | GI50 (T-47D breast): 4.94 µM | TGI (T-47D breast): 23.9 µM | GI50 (TK-10 renal): 4.28 µM | TGI (TK-10 renal): 17.4 µM | GI50 (U251 CNS): 0.473 µM | TGI (U251 CNS): 7.97 µM | GI50 (UACC-257 melanoma): 9.4 µM | TGI (UACC-257 melanoma): 46.1 µM | GI50 (UACC-62 melanoma): 2.21 µM | TGI (UACC-62 melanoma): 25.2 µM | GI50 (UO-31 renal): 7.26 µM | TGI (UO-31 renal): 30.8 µM
